Measurements published in PubChem BioAssay AID179 (DTP/NCI, 2004).
Active and inactive are the calls of the source.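 How the source made its calls: active means compounds giving half or more protection of infected cells from virus-caused growth loss, again on retest; inactive means the rest.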

Tested on: CEM cells HIV-1 protection, formazan growth assay
Assay: NCI AIDS Antiviral Assay
Settings: for IC50: measured here: growth of uninfected CEM cells
Procedure, shortened: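 Human CEM cells, uninfected and HIV-1-infected, exposed to five drug concentrations; growth measured by soluble formazan assay and scored as percent protection from infection, with protecting compounds retested.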

Row | SMILES | EC50 | IC50 | outcome
1 | Cc1nc(Nc2ccc(Cl)c(Cl)c2)sc1C(/C=C/c1ccc2c(c1)OCO2)=N/Nc1ccc([N+](=O)[O-])cc1[N+](=O)[O-] | > 2.34 µM | > 2.34 µM | 
2 | COC(=O)CCS/C=C/C(=O)O | > 1320 µM | > 1320 µM | 
3 | COc1cc2cc3c4c(cc(OC)c(OC)c4c2cc1OC)CCN3C(=O)CCC(=O)O | > 200 µM | 123 µM | 
4 | COc1ccc(N2CCOCC2)cc1 |  |  | inactive
5 | COC1CC[C@@H]2CC(=O)CC[C@]2(C)C1=O (stereo partly specified) |  |  | inactive
6 | CC1(C)C(=NN=C(N)N)C(C)(C)C1=NN=C(N)N | > 50.1 µM | > 50.1 µM | 
7 | CC(=O)O[C@H]1CCC2[C@@H]3CCC4C(=O)c5oncc5C[C@]4(C)C3CC[C@@]21C (stereo partly specified) |  |  | inactive
8 | N#Cc1c(Cl)c2cc([N+](=O)[O-])ccc2n2c1nc1ccccc12 | > 20 µM | 0.813 µM | 
9 | Cc1c(C#N)c2n(c1C)CCCC(=O)N2 | > 219 µM | > 219 µM | 
10 | CC1=C(C(N)=O)C(c2ccncc2)C(C#N)C(=O)N1 (stereo unspecified) | > 200 µM | 145 µM | 
11 | O=c1c2ncn(CCCl)c2n(-c2ccccc2)c(=S)n1-c1ccccc1 | > 200 µM | > 200 µM | 
12 | COc1cc(C(=O)Nc2nnc(S(N)(=O)=O)s2)cc(OC)c1OC | > 200 µM | > 200 µM | 
13 | Cc1ccc2cccc(-c3cccc4ccccc34)c2n1 | > 200 µM | 10.5 µM | 
14 | [N-]=[N+]=Nc1ccc2c(c1)Sc1ccccc1N2CCCCCl | > 200 µM | 26.9 µM | 
15 | COc1cc(OC)cc(C2=NNc3n[nH]c(=S)n3N2)c1 | > 123 µM | > 123 µM | 
16 | N#CCC(=O)N/N=C(\CCN1CCCC1)CC(c1ccccc1)c1c(O)c2ccccc2oc1=O (stereo unspecified) | > 97.7 µM | 55 µM | 
17 | C/C(N=NC(=S)N1CCCCCC1)=C1\C=CC=CN1O | > 123 µM | 2.14 µM | 
18 | O=C(/C=C/c1ccc2c(c1)OCO2)c1cccc2ccccc12 | > 6.61 µM | > 6.61 µM | 
19 | CC1(C)/C(=N\Nc2ccc([N+](=O)[O-])cc2[N+](=O)[O-])C2CCC1C2 (stereo unspecified) | > 200 µM | > 200 µM | 
20 | Cc1cc2occ(S(=O)(=O)NC(=O)Nc3ccc(Cl)cc3)c(=O)c2c(=O)o1 | > 200 µM | 151 µM | 
21 | N#CC(C#N)=C1CCC2C(=C(C#N)C#N)CCC12 (stereo unspecified) |  |  | inactive
22 | CCOC(=O)C1CN(C2CC2)CCC1=O (stereo unspecified) | > 200 µM | > 200 µM | 
23 | CN(C)CCNC(=O)c1ccc(Cl)c2c(Nc3ccc(S(N)(=O)=O)cc3)c3ccccc3nc12 |  |  | inactive
24 | O=C(OCCN1CCCCC1)c1cc2ccccc2n1-c1ccccc1 | > 200 µM | 97.7 µM | 

Row | SMILES | EC50 | IC50 | outcome
25 | CN=C1CC2c3cc(OC)c(OC)cc3CCN2C2=C1C(=O)CC(C)(C)C2 (stereo unspecified) | > 200 µM | > 200 µM | 
26 | O=C1CCCC2COc3ccc(O)c1c32 (stereo unspecified) |  |  | inactive
27 | O=[N+]([O-])O.[Ga] | > 100 µM | > 100 µM | 
28 | CCC1=C2C(=O)c3ccccc3C2=C(C)S(=O)(=O)O1 | 257 µM | 263 µM | 
29 | CCCCCCCCCc1cc(=O)c2ccc(OCc3ccccc3)cc2o1 | > 2.75 µM | > 2.75 µM | 
30 | OC1(C2(O)CCC2)CCC1 | > 200 µM | > 200 µM | 
31 | O=C(CCN1CCOCC1)c1ccc(Oc2ccc(F)cc2)cc1 |  |  | inactive
32 | CC12CCC([C@H](Nc3cc(C(F)(F)F)cc(C(F)(F)F)c3)C1=O)C2(C)C (stereo partly specified) | > 20 µM | > 20 µM | 
33 | O=C(O)c1cc(=O)[nH]c(=O)[nH]1 |  |  | inactive
34 | N/N=c1\c2ccccc2c2cc3c(cc12)/c(=N/N)c1ccccc13 | > 17 µM | > 17 µM | 
35 | O=C(c1ccccc1)[C@H]1Nc2ccc(Cl)cc2[C@H]2c3ccccc3O[C@H]21 | > 27.5 µM | > 27.5 µM | 
36 | O=C(O)COc1ccc(Cl)cc1Cc1cc(Cl)ccc1OCC(=O)O | > 200 µM | 89.1 µM | 
37 | CCOc1ccc2nc(NC(=O)C(=O)C(C(=O)c3ccccc3F)C3OC(=O)c4ccccc43)sc2c1 (stereo unspecified) | > 182 µM | 8.13 µM | 
38 | COc1cc2c(cc1OC)C(CC(=O)NN=C(C)C)NCC2 (stereo unspecified) | > 813 µM | > 813 µM | 
39 | COc1cc2c(cc1OC)C(C#N)N(C(=O)c1ccccc1)C=C2OC(=O)c1ccccc1 (stereo unspecified) |  |  | inactive
40 | CC(=O)N1OC2(C)c3ccccc3C1(C)c1ccccc12 | > 25.7 µM | 23.4 µM | 
41 | O=S1(=O)CCCS(=O)(=O)C1CC1S(=O)(=O)CCCS1(=O)=O | > 245 µM | > 245 µM | 
42 | C=CCOCCC(CC=C)C(=O)CC(=O)OC (stereo unspecified) | > 251 µM | 195 µM | 
43 | O=C1c2ccccc2C(=O)N1CCCSCC(CO)SCCCN1C(=O)c2ccccc2C1=O (stereo unspecified) | > 200 µM | > 200 µM | 
44 | COC1(OC)C=CC2C1C1C=CC2C1(OC)OC (stereo unspecified) | > 200 µM | > 200 µM | 
45 | CC1CC(=O)Nc2cc(C(F)(F)F)ccc2N1 (stereo unspecified) | > 200 µM | > 200 µM | 
46 | COC1C(OC(=O)/C=C/C=C/C=C/C=C/C(=O)O)CCC2(CO2)C1C1(C)OC1CC=C(C)C (stereo unspecified) | > 0.2 µM | 0.178 µM | 
47 | COCC(N=CN1CCCc2ccccc2[C@@H]1CCCCl)C(C)(C)C (stereo partly specified) | > 200 µM | 22.4 µM | 
48 | CCOC(=O)Cc1nc2ccc3c(c2[nH]c1=O)C(=O)c1ccccc1C3=O | > 14.5 µM | > 14.5 µM | 

Row | SMILES | EC50 | IC50 | outcome
49 | O=C1NC2C(O)CCCCC2C12CCCCC2 (stereo unspecified) |  |  | inactive
50 | O=c1[nH]cc(N=Nc2ccc(S(=O)(=O)Nc3nccs3)cc2)cc1O | > 195 µM | 170 µM | 
51 | CSc1nc2[nH]ccc2c(=O)[nH]1 |  |  | inactive
52 | CCOC(=O)/C=C1\C[C@H](NC(=O)OCc2ccccc2)C(=O)N1CC(=O)OCC | > 200 µM | > 200 µM | 
53 | O=C1NN2CCN=C2c2ncccc21 | > 933 µM | > 933 µM | 
54 | O=C1CCC2(CC1)SCCCS2 | > 339 µM | > 339 µM | 
55 | O=C1/C(=C/c2ccccc2)CC/C1=C\c1ccccc1 |  |  | inactive
56 | CC(C)(C)C1CCC2c3c([nH]c4ccccc34)C3C(=O)N(c4cccc([N+](=O)[O-])c4)C(=O)C3C2C1 (stereo unspecified) | > 200 µM | 4.79 µM | 
57 | O=C1C2=C(c3ccccc31)C(c1ccccc1Cl)N1C(=O)CSC1=N2 (stereo unspecified) | > 37.2 µM | > 37.2 µM | 
58 | S=c1[nH]c(=S)c2sc(=S)n(-c3ccccc3)c2[nH]1 | > 115 µM | 56.2 µM | 
59 | CCCCc1ccc(N2C(=O)c3cc(C)cnc3S2(=O)=O)cc1 | > 200 µM | > 200 µM | 
60 | COc1ccc2c(=O)c(-c3ccc4c(c3)OCO4)c(C)oc2c1 | > 200 µM | 42.7 µM | 
61 | COc1cc(NS(=O)(=O)c2ccc(NC(=O)c3ccccc3SC(=O)CCCC[n+]3ccccc3)cc2)nc(OC)n1 | 26.9 µM | 60.3 µM | 
62 | CC12CCC([C@H](C(O)C3CCCCC3)C1=O)C2(C)C (stereo partly specified) | > 200 µM | 52.5 µM | 
63 | CNc1ccc(/C=C2\C=Cc3ccccc32)cc1 | > 200 µM | > 200 µM | 
64 | COCCCNC(=O)C1C(=O)N(CCCOC)C(=O)/C1=N\N (stereo unspecified) | > 214 µM | > 214 µM | 
65 | O=c1[nH]n(-c2ccccc2)c(=O)cc1Cl | > 85.1 µM | > 85.1 µM | 
66 | Cc1ccccc1NC(=O)C(=O)C(C#N)c1ccccc1C (stereo unspecified) | > 17.8 µM | > 17.8 µM | 
67 | O=C(O)c1cc2cccc(S(=O)(=O)O)c2cc1O | > 200 µM | > 200 µM | 
68 | Cc1cn(CC2=NCCCN2)c(=O)[nH]c1=O | > 200 µM | > 200 µM | 
69 | O=C(O)c1c2c(nc3ccccc13)-c1ccccc1C1(CCCC1)C2 | > 468 µM | 170 µM | 
70 | CCN(CC)c1ccc(N=Cc2cc(=O)n(C)c3ccccc23)cc1 | > 200 µM | 3.72 µM | 
71 | COc1ccc2c(c1)c(=O)c1c(NCCNCCO)ccc3c(=O)n(CCN(C)C)c(=O)n2c31 | > 0.0427 µM | 0.0339 µM | 
72 | CC(C)(C)OC(=O)NNC(=O)C1Cc2ccccc2OC1=O (stereo unspecified) | > 200 µM | > 200 µM | 

Row | SMILES | EC50 | IC50 | outcome
73 | O=C(O)CCSCCCCCCCCCCSCCC(=O)O | > 74.1 µM | > 74.1 µM | 
74 | CC12C(=O)CC(CC1=O)C2(C)C | > 200 µM | > 200 µM | 
75 | Cc1cccc(C)c1NC(=O)C(=O)Nn1c(NN)nc2ccccc2c1=O | > 676 µM | 525 µM | 
76 | CSc1n[nH]c(N)c1C(=O)Nc1ccc(Cl)cc1 | 0.457 µM | 1.86 µM | 
77 | CC1(C)C(=O)C(C)(C)C(=O)C(C)(C)C1=O |  |  | inactive
78 | COCCc1c(C)c(C#N)c2n(C)c3ccccc3n2c1=O | > 200 µM | > 200 µM | 
79 | Cn1c(CCC2(C)Cc3ccccc3C(=O)O2)cc2ccccc2c1=O (stereo unspecified) | > 200 µM | 36.3 µM | 
80 | Cc1c2n(c(=O)[nH]c1=O)C1OC(CO)C(O2)C1N=[N+]=[N-] (stereo unspecified) | 135 µM | > 200 µM | 
81 | C=C(/C=C/C=C(\CO)CCC=C(C)C)[C@H]1CCC2([C@H](CCCO)/C(=C(/C)C=O)CC[C@]2(C)O)[C@H]1O (stereo partly specified) | > 263 µM | 195 µM | 
82 | Cc1nnc(-n2c(O)cc(=O)n(-c3ccccc3)c2=S)nc1/C=C/c1ccc(N(C)C)cc1 | > 100 µM | 5.62 µM | 
83 | COc1ccc(/C(C)=N/N=C\c2cc(OC)c(OC)c(OC)c2)cc1 | > 200 µM | > 200 µM | 
84 | Cn1c(=O)c2c(nc(NCC[N+](C)(C)C)n2C)n(C)c1=O |  |  | inactive
85 | OC(Cc1cccc2ccccc12)CN1CCC(c2ccccc2)CC1 (stereo unspecified) | > 93.3 µM | 28.8 µM | 
86 | CCOP(=O)(OCC)C(NC(=O)C(C(F)(F)F)C(F)(F)F)c1ccccc1 (stereo unspecified) | > 200 µM | 24.5 µM | 
87 | C=C(C(=O)O)C1CC[C@@]2(C)CCC[C@@](C)(O)C2C1 (stereo partly specified) | > 200 µM | > 200 µM | 
88 | COC(=O)c1ccc2c(c1)C(O)NC(=O)O2 (stereo unspecified) | > 200 µM | 34.7 µM | 
89 | O=C(c1ccccc1)C(SSC(C(=O)c1ccccc1)C(=O)c1ccccc1)C(=O)c1ccccc1 | > 200 µM | 17.4 µM | 
90 | COc1ccc(C(c2c(O)c3ccccc3oc2=O)c2c(O)c3ccccc3oc2=O)c(OC)c1 | > 200 µM | 85.1 µM | 
91 | Oc1c(CN2CCOCC2)ccc2cccnc12 | > 200 µM | 3.72 µM | 
92 | CC1(CCCCO)C=CC(S(=O)(=O)c2ccccc2)CC1 (stereo unspecified) |  |  | inactive
93 | O=C(O)C(CO)NC(=O)n1c2ccccc2c2ccccc21 (stereo unspecified) | > 832 µM | 537 µM | 
